Results taken from patent publication US20160138077A1, “MONITORING AND ASSESSING DEACETYLASE ENZYME ACTIVITY” (THE GENERAL HOSPITAL CORPORATION, priority 2013, published 2016).

Tests used:
[1] = Stability of the enamide in HDAC buffer at pH 2-12 (HPLC/LCMS); type: physicochemical; conditions: HDAC assay buffer, room temperature, 20 μM
Protocol: HDAC buffer was adjusted to pH 2, 4, 6, 7, 8, 10 or 12 with […]. Compound 9 was dissolved in HDAC buffer at each pH to obtain 200 μL of a 20 μM solution. The solutions were kept at room temperature and 10 μL aliquots were analyzed at selected time points (t=0, 5, 10, 15, 30 and 60 minutes). Experiments were carried out in duplicate and the hydrolysis was monitored by HPLC and LCMS. HPLC measurements were made using a gradient elution system composed of water and acetonitrile with 0.01% ammonium formate at a flow rate of 1 mL/min on an Agilent Eclipse XDB-C18 chromatographic column (4.6 mm×150 mm). LCMS was performed with a gradient elution system composed of water and acetonitrile with 0.1% ammonium formate at a flow rate of 0.1 mL/min using an Agilent Eclipse XDB-C8 chromatographic column (5 μm particle size, 2.1 mm×150 mm).

[2] = biological target: Bovine serum albumin (Bos taurus, UniProt P02769); test: HP-1 deacetylation and protein binding assay (gel filtration, fluorescence)
Protocol: Solutions containing HP-1 (20 μM) in 30 μL HDAC buffer with 5% DMSO were incubated at 37° C. for four hours in the presence or absence of HDAC3 (3.6 μM). After incubation with HDAC3, NaCNBH3 (1.4 mM) or vehicle (H2O) and BSA (6 mg/mL) or vehicle (HDAC buffer), were added to the solutions prior to an additional incubation at 37° C. for two hours (all reactions were run in triplicate). Following the second incubation, the final solutions (50 μL) were added to G-25 columns (GE Healthcare, Buckinghamshire, UK) pre-equilibrated with milliQ water. The columns were then centrifuged at 700×g for 60 seconds before addition of milliQ water (50 μL). […] 75 μL of each fraction was transferred to a well in a 96-well, black, clear-bottom plate (Corning Incorporated, Corning, N.Y.) and the fluorescence was detected using an IVIS Spectrum (Caliper, Hopkinton, Mass.). To obtain the fluorescence signals, the 465 nm excitation filter, 530 nm emission filter, and a 5 second exposure were used. For analysis, the total photon flux over the area of each well was determined.
HP-1 deacetylation and protein binding assay. […] The fractions were transferred to a well in a 96-well, black, clear-bottom plate (Corning Incorporated, Corning, N.Y.) and the fluorescence was detected using an IVIS Spectrum (Caliper, Hopkinton, Mass.). […]

Bovine serum albumin, sequence (P02769 25-607): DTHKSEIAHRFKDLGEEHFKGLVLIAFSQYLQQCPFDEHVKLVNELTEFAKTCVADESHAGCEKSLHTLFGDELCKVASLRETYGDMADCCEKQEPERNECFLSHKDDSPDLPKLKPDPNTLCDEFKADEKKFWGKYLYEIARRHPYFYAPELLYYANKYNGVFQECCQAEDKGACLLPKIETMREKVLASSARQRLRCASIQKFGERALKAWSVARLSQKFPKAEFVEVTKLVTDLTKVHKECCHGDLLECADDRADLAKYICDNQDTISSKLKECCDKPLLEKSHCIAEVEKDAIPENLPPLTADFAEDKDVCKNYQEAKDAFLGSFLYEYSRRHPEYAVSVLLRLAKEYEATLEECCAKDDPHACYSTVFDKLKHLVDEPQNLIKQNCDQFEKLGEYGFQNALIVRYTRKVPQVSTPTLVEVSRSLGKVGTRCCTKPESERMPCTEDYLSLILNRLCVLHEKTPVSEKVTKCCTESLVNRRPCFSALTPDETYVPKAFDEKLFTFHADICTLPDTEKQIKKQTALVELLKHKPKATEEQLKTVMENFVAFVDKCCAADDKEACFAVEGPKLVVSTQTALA

| Structure (SMILES) | conversion of the enamide to the aldehyde ([1]; pH 2, 60 min) | conversion of the enamide to the aldehyde ([1]; pH 4-12, 60 min) | increase in protein-DHP-1 binding compared to controls ([2]; HP-1 (20 μM) incubated with HDAC3, then BSA with NaCNBH3 (Lanes F and H)) [fold] | increase in detected protein-DHP-1 binding relative to controls ([2]; HP-1 (20 μM) incubated with HDAC3, then BSA, no NaCNBH3 (lanes E and G)) [fold] |
| --- | --- | --- | --- | --- |
| CC(=O)NC=CCCCCNC(=O)c1ccccc1 [Compound 9] | full conversion | no detectable conversion |  |  |
| O=CCCCCCNC(=O)CCCCCNc1ccc([N+](=O)[O-])c2nonc12 [DHP-1] |  |  | 5 | 2 |
